# System: GBM12 astrocytoma GSCs
# Test: Orthotopic graft in athymic mice, survival
# Assay type: in vivo
# Conditions: GBM 12 engrafted mice; GTA alone 5.8 g/kg daily; p<0.0001
# Protocol: Cells (2,500 cells in 4 μl) were injected into the right striatum (1 mm anterior, 1.5 mm lateral to bregma, 3.5 mm deep) of adult athymic mice (8-week-old, 25-28 g). […]
# For in vivo imaging, mice were injected i.p. with 150 mg/kg D-luciferin potassium salt 5 minutes prior to imaging under 1.5% inhaled isoflurane. Peak efflux was determined from an average of 15 bioluminescent acquisitions, with 1 min inter-acquisition intervals, using the auto-exposure setting. Total photon efflux was determined by drawing regions of interest over the emitted region and setting thresholds for each mouse to maximize the number of pixels encircled using Living Image acquisition and analysis software (Version 3.0.3.5, Caliper Life Sciences, Hopkinton, Mass.). […]
# Tumor bioluminescence (rate of flux change over time) and tumor volume were compared using a Mann-Whitney test. Survival was analyzed using Kaplan-Meier curves [Kaplan, EL and P Meier. (1958) J Am Stat Assoc 53:457-481] and comparisons between groups were analyzed with a log-rank test [Peto, R and J Peto. […]
smiles,measurement,value
"CC(=O)OCC(COC(C)=O)OC(C)=O [GTA, glyceryltriacetate]",Survival relative to vehicle treated mice,increased survival relative to vehicle treated mice

# Source: patent publication US10765654B2, “Methods and compounds for treating cancer” (University of Vermont and State Agricultural College, priority 2011, dated 2020)
